The source of these data is patent US8030306B2, “Azabicyclic heterocycles as cannabinoid receptor modulators” (Bristol-Myers Squibb Company, priority 2006, dated 2011).

For one series, the target named is T1, recombinant human CB-1 (Homo sapiens, UniProt P21554).
T1 construct: expressed in transfected cells; host or cells: CHO cells (CHO-CB-1), membrane preparation
In words: Cannabinoid receptor binding assay (radioligand 3H-CP-55,940, CHO-CB-1 membranes). To be noted: membranes of CHO cells over-expressing recombinant human CB-1, 2 nM 3H-CP-55,940, read-out: CB1 Ki. On the procedure: Radioligand binding studies were conducted in membranes prepared from Chinese Hamster Ovary (CHO) cells that over-express recombinant human CB-1 (CHO-CB-1 cells). Total assay volume for the binding studies was 100 μl. 5 μg of membranes were brought up to a final volume of 95 μl with Binding Buffer (25 mM HEPES, 150 mM NaCl, 2.5 mM CaCl2, 1 mM MgCl2, 0.25% BSA). The diluted membranes were preincubated with a compound or DMSO vehicle. The binding reaction was initiated by the addition of 2 nM final ^3H-CP-55,940 (120 Ci/mmol) and proceeded for 2.5 hours at room temperature. The binding reaction was terminated by transferring the reaction to GF/B 96 well plates (presoaked with 0.3% polyethylenimine) using a Packard Cell Harvester. The filter was washed with 0.25 ×PBS, 30 μl MicroScint was added per well, and the bound radiolabel was quantitated by scintillation counting on a Packard TopCount Scintillation Counter. The CB-2 radioligand binding assay was conducted identically except that the membranes from CHO-CB-2 cells were used.

The nature of series [1]: Thermodynamic equilibrium aqueous solubility assay. In kind it is physicochemical. To be noted: thermodynamic from solid, room temperature, default 50 mM pH 6.5 potassium phosphate buffer. On the procedure:
• Assay Name: Thermodynamic Equilibrium Aqueous Solubility Assay • Description: The purpose of this assay is to provide a medium throughput estimation of the thermodynamic equilibrium aqueous solubility of compounds at room temperature. Solvent system default is 50 mM pH 6.5 potassium phosphate buffer. Detailed Protocol:
Standards Preparation—The calibration standard is prepared by accurately weighing 0.5-0.7 mg of sample in 5 ml of methanol. […] A serial dilution is performed on the standard solution.
The final saturated solution is prepared by adding 1.0 ml of the appropriate aqueous solvent to the remaining portion of material (1 dram submission vial). The solution is sonicated and vortexed for ˜30 seconds. The sample solution is placed on an orbiter that continually agitates the sample solutions for 15-24 hours at room temperature. The final saturated solution is then transferred to a 1.5 ml eppendorf tube and centrifuged for ˜2 min. at 10000 rpms. The supernatant from the saturated solution is transferred to a glass HPLC-suitable vial without filtering since the […] is insufficient to saturate the syringe filter. This sample preparation procedure nullifies the effects of non-specific binding to the filtering apparatus.
The standards and sample are analyzed by HPLC using either UV/Vis diode array or variable wavelength detection. Typical quantitation wavelengths are 210 or 254 nm; detection wavelength can be individually customized to optimize sensitivity. In addition to UV detection, mass spectrometry detection is recommended if available in order to confirm the identity of the HPLC-UV peak of interest.
Dilutions of aqueous test solutions are performed if HPLC-UV peak is beyond the linear portion of the standard calibration curve. Typical dilutions include 100 ul/900 ul (×10) or 500 ul/500 ul (2 ×), as required.

Series [2] can be described thus: Canine half-life assay (IV pharmacokinetics). In kind it is in vivo. The note with it: dog, plasma; male beagle dogs, IV 1 mg/kg; unit not given in table (text gives hrs). On the procedure:
Functional canine half-life of test compounds was determined by methods […] to one of ordinary skill in the art. For example, pharmacokinetic parameters were determined in male beagle dogs (weight of 12.4, 13.2 and 8.9 kg). The intravenous (“IV”) solution dose studies were conducted in a crossover design (n=3). Animals with vascular access ports, chronically implanted in the femoral vein, were used for administration of the dose. The animals had free access to water and were conscious and unrestrained throughout the study. In the IV study, drug was infused at a dose of 1 mg/kg (1 mL/kg) in 50% PEG-400, 10% ethanol and 40% water over 10 minutes. Serial blood samples were collected from the jugular vein at 0.167, 0.25, 0.5, 0.75, 1, 2, 4, 6, 8, 24, 48 and 72 hours post-dose. Plasma was prepared immediately, and the samples were frozen on dry ice and stored at −20° C. until analysis. All samples were analyzed for the concentration of the parent drug by LC-MS/MS analysis.
The pharmacokinetic parameters were calculated by Non-Compartmental Analysis using the […]™ software program (version 4.2, InnaPhase Co., Philadelphia, Pa.). The AUCO-Tlast and AUCtot values were calculated using the trapezoidal summations. The elimination half-life (T1/2) was calculated from the terminal, linear portion of the plasma concentration-time data curve. The total clearance (CLplasma), mean residence time (MRT), and the steady state volume of distribution (Vss) were also calculated after intravenous administration. The total blood clearance (CLblood) was calculated by using the total plasma clearance and the blood to plasma concentration ratio. All results are expressed as mean±SD, unless specified otherwise.

For series [3] the following is noted: 16 week trial period, Phase IIb; cited from earlier work.

In brackets after ≈: the same amount, converted by molar mass.

Broadly, the Ki is the dissociation constant of the complex between target and ligand, obtained from inhibition or displacement. The solubility is the dissolved amount per volume that the medium holds. Low values mean little dissolved substance, high ones much dissolved substance. Usually half-life stands for how long it takes for the measured level to halve. High values mean slow decline, low ones rapid decline.

T1 sequence (P21554 whole entry): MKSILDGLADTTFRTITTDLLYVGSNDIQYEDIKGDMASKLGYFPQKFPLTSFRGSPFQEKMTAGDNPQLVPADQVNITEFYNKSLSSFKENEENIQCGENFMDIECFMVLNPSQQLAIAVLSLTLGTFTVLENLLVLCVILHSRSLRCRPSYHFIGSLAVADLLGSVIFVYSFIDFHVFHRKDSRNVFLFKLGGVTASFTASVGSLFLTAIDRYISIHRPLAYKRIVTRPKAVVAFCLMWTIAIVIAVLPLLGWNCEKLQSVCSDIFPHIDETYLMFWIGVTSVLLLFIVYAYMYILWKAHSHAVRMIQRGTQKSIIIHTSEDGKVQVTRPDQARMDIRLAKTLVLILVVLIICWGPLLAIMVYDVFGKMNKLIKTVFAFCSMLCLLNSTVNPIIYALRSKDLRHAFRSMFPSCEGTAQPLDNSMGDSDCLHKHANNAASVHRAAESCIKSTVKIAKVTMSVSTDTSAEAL

For the compound `COCc1nnc2c(-c3ccc(Cl)cc3)c(-c3ccc(C#N)cc3)c(=O)n(Cc3ccc(C(F)(F)F)nc3C)n12` [Example 2, 4-(8-(4-chlorophenyl)-3-(methoxymethyl)-5-((2-methyl-6-(trifluoromethyl)pyridin-3-yl)methyl)-6-oxo-5,6-dihydro-[1,2,4]triazolo[4,3-b]pyridazin-7-yl)benzonitrile], the Ki at recombinant human CB-1 stood at 5 nM. Also, in series [1], the solubility stood at 6 µg/mL (≈ 10.6 µM). The same compound gave a half-life in series [2] of 23 h.

Consider `Cc1nc(C(F)(F)F)ccc1Cn1c(=O)c(-c2ccc(C#N)cc2)c(-c2ccc(Cl)cc2)c2nnc(CO)n21` [Example 3, 4-(8-(4-chlorophenyl)-3-(hydroxymethyl)-5-((2-methyl-6-(trifluoromethyl)pyridin-3-yl)methyl)-6-oxo-5,6-dihydro-[1,2,4]triazolo[4,3-b]pyridazin-7-yl)benzonitrile], for which the inhibition constant (Ki) at recombinant human CB-1 came to 3 nM. The compound further yielded a solubility in series [1] of 15 µg/mL (≈ 27.2 µM). In addition, the half-life in series [2] was 20 h.

In the case of `Cc1nc(C(F)(F)F)ccc1Cn1c(=O)c(-c2ccc(C#N)cc2)c(-c2ccc(Cl)cc2)c2nnc([C@@H](C)O)n21` [Example 4, (R)-4-(8-(4-chlorophenyl)-3-(1-hydroxyethyl)-5-((2-methyl-6-(trifluoromethyl)pyridin-3-yl)methyl)-6-oxo-5,6-dihydro-[1,2,4]triazolo[4,3-b]pyridazin-7-yl)benzonitrile], the Ki on recombinant human CB-1 was 15 nM. In series [1], the solubility came out at 10 µg/mL (≈ 17.7 µM).

Consider `Cc1nc(C(F)(F)F)ccc1Cn1c(=O)c(-c2ccc(C#N)cc2)c(-c2ccc(Cl)cc2)c2nnc([C@H](C)O)n21` [Example 5, (S)-4-(8-(4-chlorophenyl)-3-(1-hydroxyethyl)-5-((2-methyl-6-(trifluoromethyl)pyridin-3-yl)methyl)-6-oxo-5,6-dihydro-[1,2,4]triazolo[4,3-b]pyridazin-7-yl)benzonitrile], for which the Ki at recombinant human CB-1 came to 10 nM.

As to `Cc1nc(C(F)(F)F)ccc1Cn1c(=O)c(-c2ccc(C#N)cc2)c(-c2ccc(Cl)cc2)c2nnc(CN(C)C)n21` [Example 10, 4-(8-(4-chlorophenyl)-3-((dimethylamino)methyl)-5-((2-methyl-6-(trifluoromethyl)pyridin-3-yl)methyl)-6-oxo-5,6-dihydro-[1,2,4]triazolo[4,3-b]pyridazin-7-yl)benzonitrile], at recombinant human CB-1, the Ki stood at 13 nM. In series [1], this compound displayed a solubility of 2 µg/mL (≈ 3.46 µM).

For `Cc1nc(C(F)(F)F)ccc1Cn1c(=O)c(-c2ccc(C#N)cc2)c(-c2ccc(Cl)cc2)c2nnc(CN)n21` [Example 11, 4-(3-(aminomethyl)-8-(4-chlorophenyl)-5-((2-methyl-6-(trifluoromethyl)pyridin-3-yl)methyl)-6-oxo-5,6-dihydro-[1,2,4]triazolo[4,3-b]pyridazin-7-yl)benzonitrile], the Ki at recombinant human CB-1 was 11 nM.

On to `Cc1nc(C(F)(F)F)ccc1Cn1c(=O)c(-c2ccccc2)c(-c2ccc(Cl)cc2)c2nnc(CN)n21` [Example 12], for which the Ki at recombinant human CB-1 came to 8 nM. This compound yielded a solubility in series [1] of 101 µg/mL (≈ 192 µM).

Turning to `Cc1ccc(-c2c(-c3ccc(Cl)cc3)c3nnc(CN)n3n(Cc3ccc(C(F)(F)F)nc3C)c2=O)cc1` [Example 13], the Ki at recombinant human CB-1 amounted to 3 nM. The compound also came in with a solubility in series [1] of 20 µg/mL (≈ 37.1 µM).

Regarding `CNCc1nnc2c(-c3ccc(Cl)cc3)c(-c3ccccc3)c(=O)n(Cc3ccc(C(F)(F)F)nc3C)n12` [Example 14], the Ki at recombinant human CB-1 is 10 nM. Further, the solubility in series [1] worked out at 25 µg/mL (≈ 46.4 µM).

As to `Cc1nc(C(F)(F)F)ccc1Cn1c(=O)c(-c2ccc(Cl)cc2)c(-c2ccc(Cl)cc2)c2nnc(CN)n21` [Example 15], at recombinant human CB-1, the Ki is 12 nM. In series [1], this compound registered a solubility of 16 µg/mL (≈ 28.6 µM).

Regarding `Cc1ccc(-c2c(-c3ccc(Cl)cc3)c3nnc([C@H](C)N)n3n(Cc3ccc(C(F)(F)F)nc3C)c2=O)cc1` [Example 16], the Ki at recombinant human CB-1 amounted to 6 nM. In series [1], the solubility is 38 µg/mL (≈ 68.7 µM).

Regarding `Cc1ccc(-c2c(-c3ccc(Cl)cc3)c(=O)n(Cc3ccc(C(F)(F)F)nc3C)n3c(CN)nnc23)cc1` [Example 17], the Ki on recombinant human CB-1 amounted to 20 nM. Besides, in series [1], the solubility stood at 31 µg/mL (≈ 57.5 µM).

As for `Cc1ccc(-c2c(-c3ccc(Cl)cc3)c(=O)n(Cc3ccc(C(F)(F)F)nc3C)n3c([C@H](C)O)nnc23)cc1` [Example 18, (S)-7-(4-chlorophenyl)-3-(1-hydroxyethyl)-5-((2-methyl-6-(trifluoromethyl)pyridin-3-yl)methyl)-8-p-tolyl-[1,2,4]triazolo[4,3-b]pyridazin-6(5H)-one], the inhibitory constant (Ki) on recombinant human CB-1 came to 14 nM. This compound had a solubility in series [1] of 7 µg/mL (≈ 12.6 µM).

Regarding `Cc1ccc(-c2c(-c3ccc(Cl)cc3)c3nnc([C@H](C)O)n3n(Cc3ccc(C(F)(F)F)nc3C)c2=O)cc1` [Example 19, (S)-8-(4-chlorophenyl)-3-(1-hydroxyethyl)-5-((2-methyl-6-(trifluoromethyl)pyridin-3-yl)methyl)-7-p-tolyl-[1,2,4]triazolo[4,3-b]pyridazin-6(5H)-one], the Ki on recombinant human CB-1 stood at 5 nM. Further, the solubility in series [1] was 7 µg/mL (≈ 12.6 µM).

Turning to `Cc1nc(C(F)(F)F)ccc1Cn1c(=O)c(-c2ccccc2)c(-c2ccc(Cl)cc2)c2nnc([C@H](C)O)n21` [Example 20, (S)-8-(4-chlorophenyl)-3-(1-hydroxyethyl)-5-((2-methyl-6-(trifluoromethyl)pyridin-3-yl)methyl)-7-phenyl-[1,2,4]triazolo[4,3-b]pyridazin-6(5H)-one], the Ki at recombinant human CB-1 worked out at 6 nM. The solubility in series [1] worked out at 22 µg/mL (≈ 40.7 µM).

For `Cc1nc(C(F)(F)F)ccc1Cn1c(=O)c(-c2ccccc2)c(-c2ccc(Cl)cc2)c2nnc([C@@H](C)O)n21` [Example 21, (R)-8-(4-chlorophenyl)-3-(1-hydroxyethyl)-5-((2-methyl-6-(trifluoromethyl)pyridin-3-yl)methyl)-7-phenyl-[1,2,4]triazolo[4,3-b]pyridazin-6(5H)-one], the Ki on recombinant human CB-1 was determined as 27 nM. This compound had a solubility in series [1] of 31 µg/mL (≈ 57.4 µM).

Consider `COCc1nnc2c(-c3ccc(Cl)cc3)c(-c3ccccc3)c(=O)n(Cc3ccc(C(F)(F)F)nc3C)n12` [Example 22, 8-(4-chlorophenyl)-3-(methoxymethyl)-5-((2-methyl-6-(trifluoromethyl)pyridin-3-yl)methyl)-7-phenyl-[1,2,4]triazolo[4,3-b]pyridazin-6(5H)-one], for which the Ki on recombinant human CB-1 turned out to be 3 nM. Further, in series [1], the solubility amounted to 4 µg/mL (≈ 7.41 µM). In addition, in series [2], the half-life is 39 h.

For `Cc1c(C(=O)NN2CCCCC2)nn(-c2ccc(Cl)cc2Cl)c1-c1ccc(Cl)cc1` [SR-141716], in series [3], the “body weight in human subjects” value is listed as “dose-dependently reduced body weight”.
